Columns and labels:
[1] = tested on: EMT markers and MMPs in SiHa cells; assay: Western blot for EMT markers and MMPs, SiHa; assay type: cell-based, human; conditions: 24 hours
Experimental: In a further example, cell lysates and western blot analysis was conducted for EMT markers and MMPs. […] In this example, about 70% of confluent SiHa and CaSki were treated with ORM-Br ([…]) for 24 hours. Cell lysates were prepared, and western blot analysis were conducted for EMT markers and MMPs analysis. The effect of ORM-Br on protein levels of cell-cycle regulatory proteins (cyclin E1 and p27) in both CaSki and SiHa cell lines are shown.
(§1) The effect of Br-ORM on protein expression in cervical cancer cells were determined by Western blot analysis by using specific antibodies.
Epithelial mesenchymal transition (EMT) is the basic characteristic of cancer cells in which epithelial cells undergo morphologic and molecular changes that transform the cells to mesenchymal, highly metastatic (invasive and motile), and drug-resistant phenotypes. Thus, targeting EMT may reduce the invasive phenotypes of a cancer cell and have significant advantage to overcome drug resistance. It has been reported that β-catenin is involved in invasion and metastasis via inducing EMT in various tumor cells. The effect of Br-ORM treatment on various EMT markers in cervical cancer cells was evaluated. […] The effect of Br-ORM on expression of EMT markers in cervical cancer cells compared to untreated group by use of qPCR analysis was determined. […] Expression of E-cadherin in cervical cancer cells treated with Br-ORM (10 μM) for 18 hours was also determined by immunofluorescence and confocal microscopy. Images were captured under 60× magnification and representative images are presented (FIG. 14G).
FIG. 14. Br-ORM decreases migration, invasion and attenuates EMT in cervical cancer cells. Effect of Br-ORM on cell migration of cervical cancer cells as determined by agarose bead (FIG. 14A), scratch wound healing (FIG. 14B), and Boyden chamber assay (FIG. 14C). AB denotes agarose bead while MC denotes migratory cells. Arrows indicate the distance of cervical cancer (CaSki and SiHa) cells migration in control and Br-ORM treated groups (FIG. 14A(i)-(ii)). […] Closure of wound was determined and photographed using phase contrast microscopy. […] Bar graph represent the quantification of migrated CaSki cells of control and Br-ORM treated groups (FIG. 14C(ii)). […] Effect of Br-ORM treatment on invasion of CaSki cells as determined by a commercially available kit (BD Biosciences) as described in materials and methods. In brief, 24 hours post-treatment of Br-ORM, invaded cells were fixed, stained and counted. […] Bar graph represent the quantification of invaded CaSki cells of control and Br-ORM treated groups (FIG. 14D(ii)). […] Effect of Br-ORM on E-cadherin expression in cervical cancer cells as determined by confocal microscopy in control and Br-ORM treated cells after 18 hours.

[2] = tested on: cleaved PARP in CaSki cells; assay: Western blot for cleavage of PARP, CaSki; assay type: cell-based, human; conditions: 24 hours
Experimental: as §1
It was observed that Br-ORM exerts potent growth inhibitory effects, so the effect of Br-ORM on apoptosis induction was further examined. Cervical cancer cells were treated with Br-ORM (10 μM) for 24 hours and the apoptosis inducing effect of Br-ORM was analyzed by Annexin V staining and Western blot analysis for cleavage in PARP protein.
FIG. 13. Br-ORM decreases proliferation and colony formation of cervical cancer cells. FIG. 13A. Effect of Br-ORM on cell viability of CaSki cells (i) and SiHa cells (ii). Briefly, cervical cancer cells were seeded (2500) in each well of 96-well plate and after overnight incubation; cells were treated with indicated concentrations of Br-ORM for 24 hours. Cell viability was assessed by MTS assay. […] Bar graphs indicating quantification of colony formation in CaSki (i), and SiHa (ii) cells of cervical cancer with respect to vehicle control. […] Briefly, cervical cancer cells were treated with Br-ORM (10 μM) for 24 hours and the apoptosis inducing effect of Br-ORM was analyzed by Annexin V staining. […] The equal loading of protein in each lane was determined by probing the blots with β-actin antibody (FIG. 13F). […] Br-ORM arrests cell cycle in G1/S phase as determined by flow cytometry. […]

Structure (SMILES): COc1ccc2c(c1)OC(C)(C)C(c1ccc(Br)cc1)C2c1ccc(OCCN2CCCC2)cc1 (centres unmarked) [ORM-Br]
- EMT associated markers (N-cadherin, vimentin and snail) expression [1]: inhibits the EMT associated markers
- expression of E-cadherin [1]: induced the expression of E-cadherin
- expression of MMP2 and MMP9 [1]: inhibited the expression of MMP2 and MMP9
- EMT associated markers (N-cadherin, vimentin and snail) expression ([1]; listed as Br-ORM): marked inhibition
- protein levels of cleaved PARP [2]: dose dependently enhanced the protein levels of cleaved PARP

Source: patent US20240208950A1, “COMPOSITIONS AND METHODS FOR TREATMENT OF CERVICAL AND OVARIAN CANCER” (SOUTH DAKOTA BOARD OF REGENTS, priority 2021, published 2024)
